Experiments:
[1] = tested on: human immortalized keratinocytes (HaCaT); experiment: CCK-8 cell viability: alleviation of proliferative toxicity of anti-tumor agents on HaCaT (Table 8-1); type: cell-based; settings: NO-NSAID 100 μM, percentage increase in viable cells vs anti-tumor agent alone
Description: Experiments were conducted using various epithelial cells: Examples 47-51 used human immortalized keratinocytes (HaCaT) with corresponding results in Table 8-1; Examples 52-56 used human oral keratinocytes (HOK) with results in Table 8-2; Examples 57-61 used gastric epithelial cells (GES-1) with results in Table 8-3; Examples 62-66 used human intestinal epithelial cells (FHs 74 Int) with results in Table 8-4.
The cultured cells were digested the suspended, counted, and seed into a 96-well plate with 5,000-10,000 cells per well. The wells are divided into the following groups: blank control group, anti-tumor agent group, anti-tumor agent+NO-NSAID group, anti-tumor agent solvent group, NO-NSAID solvent control group. Wherein each well of each group contained a basic medium, and the final liquid volume contained in each well was about 100 μL. The grouping situation was as follows: • 1) Blank control group: no solution was added except normally replacing the medium; • 2) Anti-tumor agent group: added the anti-tumor agent solution (the final concentration was shown in Table 8-1 to Table 8-4, the solvent of the anti-tumor agent solution was DMSO); • 3) Anti-tumor agent+NO-NSAID group: added the anti-tumor agent solution and the NO-NSAID solution (the final concentrations of anti-tumor agent and NO-NSAID were shown in Table 8-1 to Table 8-4, and according to the solubility of NO-NSAID, the solvent of NO-NSAID solution was selected as ethanol or sterile water, and minor volume differences in each group were adjusted by added the corresponding solvent); • 4) Anti-tumor agent solvent group: an equal volume of DMSO as contained in the corresponding anti-tumor agent solution in Group 2) was added; • 5) NO-NSAID control group: the same volume and type of solvent (for example, ethanol or sterile water) corresponding to the NO-NSAID contained in group 3) was added.
The anti-tumor agent solvent group was not involved in data processing and was only used as a reference for evaluating experimental system error. The NO-NSAID solvent control group was used for data correction to eliminate the influence of the solvent on the results.
After culturing for 24-48 hours, the Cell Counting Kit-8 (CCK-8) detection kit (C0037, Shanghai Beyotime Biotechnology Co., Ltd., Beyotime Biotechnology) was used to determine the cell viability. This allows for the calculation of the proliferative toxicity of anti-tumor agent on cell and the mitigating effect of NO-NSAID on proliferative toxicity. The results were statistically analyzed and plotted using GraphPad Prism 6.0 software and t test.

[2] = tested on: hand-foot syndrome caused by macromolecular anti-tumor agents; experiment: Prevention of hand-foot syndrome caused by macromolecular protein inhibitors in rats (Table 3); type: in vivo
[3] = Bevacizumab, 5-FU combination, tail vein injection once a week, ointment 5% wt, Days 18
[4] = Ramucirumab combined with paclitaxel, intraperitoneal injection once a week, ointment 5% wt, Days 23

SMILES | Response rate % (average) ([1]; Afatinib (10 μM)) [%] | Response rate % (average) ([1]; Cabozantinib (5 μM)) [%] | Response rate % (average) ([1]; Dabrafenib (10 μM)) [%] | Response rate % (average) ([1]; Everolimus (5 μM)) [%] | Response rate % (average) ([1]; Infigratinib (15 μM)) [%] | Response rate % (average) ([1]; Lapatinib (5 μM)) [%] | Response rate % (average) ([1]; Lenvatinib (10 μM)) [%] | Response rate % (average) ([1]; Olmutinib (10 μM)) [%] | Response rate % (average) ([1]; Regorafenib (5 μM)) [%] | Response rate % (average) ([1]; Selumetinib (5 μM)) [%] | Response rate % (average) ([1]; Sorafenib (5 μM)) [%] | Response rate % (average) ([1]; Sunitinib (5 μM)) [%] | Control rate ([2]; Bevacizumab, 5-FU combination, tail vein injection once a week, ointment 1% wt, Days 18) [%] | Control rate [2, 3] [%] | Control rate ([2]; Ramucirumab combined with paclitaxel, intraperitoneal injection once a week, ointment 1% wt, Days 23) [%] | Control rate [2, 4] [%] | Control rate ([2]; Bevacizumab, 5-FU combination, tail vein injection once a week, ointment 2.50% wt, Days 18) [%] | Control rate ([2]; Ramucirumab combined with paclitaxel, intraperitoneal injection once a week, ointment 2.50% wt, Days 23) [%]
CC(C(=O)OCCCO[N+](=O)[O-])c1ccc(-c2ccccc2)c(F)c1 (centres unmarked) [Compound A1] | 38 | 36 | 2 | −3 | −6 | 33 | 24 | 42 | 41 | 19 | 25 | 15 | – | – | – | – | – | –
CC(=O)Oc1ccccc1C(=O)Oc1cccc(CO[N+](=O)[O-])c1 [Compound A2] | 20 | 36 | 21 | 7 | 16 | 18 | 1 | 34 | 26 | 18 | 33 | 31 | 33.33 | 50.00 | 33.33 | 66.67 | – | –
CC(=O)Oc1ccccc1C(=O)OCOC(=O)CCCCCO[N+](=O)[O-] [Compound A3] | 24 | 24 | 3 | −10 | 1 | 22 | 0 | 37 | 33 | 20 | 33 | 19 | – | – | – | – | – | –
CC(C)Cc1ccc(C(C)C(=O)OCO/N=[N+](\[O-])N(C)C)cc1 (centres unmarked) [Compound A4] | 31 | 37 | 1 | −4 | 12 | 25 | 17 | 26 | 36 | 3 | 32 | 16 | – | – | – | – | – | –
COc1ccc2cc(C(C)C(=O)OCCCCO[N+](=O)[O-])ccc2c1 (centres unmarked) [Compound A5] | 32 | 44 | 7 | 9 | 12 | 41 | 9 | 40 | 22 | 13 | 31 | 33 | – | 66.67 | – | 50.00 | 50.00 | 33.33

Reference: patent US20250170090A1, “METHOD FOR PREVENTING OR TREATING DISEASE OR DISORDER ASSOCIATED WITH ANTINEOPLASTIC AGENT” (ONQUALITY PHARMACEUTICALS CHINA LTD., priority 2022, published 2025)
